Data taken from US20250332125A1, “TREATMENT OF MODERATE AND SEVERE GASTROPARESIS” (priority 2016, published 2025).

Key:
Format in all cases: in vivo, human
[1] = Tardive dyskinesia reports over the clinical development program; details: 1,311 exposed healthy volunteers and patients over the clinical development program
[2] = Phase 3 study of metoclopramide nasal spray: safety, treatment-emergent adverse events
Protocol: The study was a U.S. multicenter, randomized, double-blind, placebo-controlled, parallel-group study of the efficacy and safety of IN MCP compared to placebo in adult female subjects with diabetic gastroparesis. Diabetic women with clinical symptoms attributed to diabetic gastroparesis, and documentation of delayed gastric emptying who met the protocol-specified entry criteria were randomized 1:1 in a parallel-group design to IN MCP (10 mg metoclopramide) or placebo administered as a single nasal spray four times daily; 30 minutes before meals and at bedtime for a total of four weeks. Eligible patients received a dose of IN MCP or placebo 30 minutes before meals and at bedtime daily.
Diabetic women with clinical symptoms attributed to diabetic gastroparesis and documentation of delayed gastric emptying who met the protocol-specified entry criteria were randomized to Metoclopramide Nasal Spray 10 mg or placebo administered as a single intranasal spray four (4) times daily; 30 minutes before meals and at bedtime for a total of four (4) weeks.

[3] = tested on: adult female subjects with diabetic gastroparesis; assay: Phase 3 multicenter, randomized, double-blind, placebo-controlled study of metoclopramide nasal spray: symptom efficacy (GSA scores); parameters: Estimated Mean Change from Baseline in Mean Daily GSA Total Scores (LSMean from ANCOVA) / Mean Change from Baseline in Mean Daily Nausea Score (LSMean from ANCOVA): scale not given here; details: for Mean Change from Baseline in Mean Daily Nausea Score (LSMean from ANCOVA) / Mean Change from Baseline in Mean Daily Upper Abdominal Pain Score (LSMean from ANCOVA): ITT Population with Moderate to Severe Symptoms; for Estimated Mean Change from Baseline in Mean Daily GSA Total Scores (LSMean from ANCOVA): Baseline GSA >2.7 (BOCF)
Protocol: A multicenter, randomized, double-blind, placebo-controlled clinical study of intranasal metoclopramide (“IN MCP”) in female diabetic gastroparesis patients was carried out. The study explored the use of IN MCP for the relief of symptoms associated with acute and recurrent diabetic gastroparesis in adult women. […] The study was a U.S. multicenter, randomized, double-blind, placebo-controlled, parallel-group study of the efficacy and safety of IN MCP compared to placebo in adult female subjects with diabetic gastroparesis. Diabetic women with clinical symptoms attributed to diabetic gastroparesis, and documentation of delayed gastric emptying who met the protocol-specified entry criteria were randomized 1:1 in a parallel-group design to IN MCP (10 mg metoclopramide) or placebo administered as a single nasal spray four times daily; 30 minutes before meals and at bedtime for a total of four weeks. Eligible patients received a dose of IN MCP or placebo 30 minutes before meals and at bedtime daily. A total of 205 female gastroparesis patients were enrolled. Of the total, nearly half had been identified as having moderate to severe gastroparesis. […] Diabetic women with clinical symptoms attributed to diabetic gastroparesis and documentation of delayed gastric emptying who met the protocol-specified entry criteria were randomized to Metoclopramide Nasal Spray 10 mg or placebo administered as a single intranasal spray four (4) times daily; 30 minutes before meals and at bedtime for a total of four (4) weeks. Inclusion criteria included prior diagnosis of Type 1 or Type 2 diabetes, and diagnosis of diabetic gastroparesis with delayed gastric emptying. […]

[4] = 10 mg intranasal four times daily, 4 weeks, N = 102
[5] = Week 1, 10 mg intranasal four times daily, N = 52
[6] = Week 2, 10 mg intranasal four times daily, N = 52
[7] = Week 3, 10 mg intranasal four times daily, N = 52
[8] = Week 4, 10 mg intranasal four times daily, N = 52

SMILES: CCN(CC)CCNC(=O)c1cc(Cl)c(N)cc1OC [IN MCP, 4-amino-5-chloro-N-[2-(diethylamino)ethyl]-2-methoxybenzamide]
- Reports of tardive dyskinesia [1]: no reports of tardive dyskinesia
- Treatment-Emergent Adverse Event Epistaxis, number of subjects [2, 4]: 1 (1%)
- Treatment-Emergent Adverse Event Epistaxis, percent of subjects [2, 4]: 1 (1%)
- Treatment-Emergent Adverse Event Fatigue, number of subjects [2, 4]: 2 (2%)
- Treatment-Emergent Adverse Event Fatigue, percent of subjects [2, 4]: 2 (2%)
- Treatment-Emergent Adverse Event Headache, number of subjects [2, 4]: 5 (5%)
- Treatment-Emergent Adverse Event Headache, percent of subjects [2, 4]: 5 (5%)
- Treatment-Emergent Adverse Event Nasal discomfort, number of subjects [2, 4]: 1 (1%)
- Treatment-Emergent Adverse Event Nasal discomfort, percent of subjects [2, 4]: 1 (1%)
- Central nervous system (CNS) effects that have been associated with oral and parenteral metoclopramide ([2]; delivered as a nasal spray): no central nervous system (CNS) effects observed
- Drug-related adverse effects ([2]; intranasal): no reported drug-related adverse effects
- Overall safety results ([2]; nasal spray 10 mg four times daily, 4 weeks): no significant adverse effects
- Mean Change from Baseline in Mean Daily Nausea Score (LSMean from ANCOVA) [3, 5]: −0.859
- Mean Change from Baseline in Mean Daily Upper Abdominal Pain Score (LSMean from ANCOVA) [3, 5]: −0.641
- Mean Change from Baseline in Mean Daily Nausea Score (LSMean from ANCOVA) [3, 6]: −1.149
- Mean Change from Baseline in Mean Daily Upper Abdominal Pain Score (LSMean from ANCOVA) [3, 6]: −0.990
- Mean Change from Baseline in Mean Daily Nausea Score (LSMean from ANCOVA) [3, 7]: −1.242
- Mean Change from Baseline in Mean Daily Upper Abdominal Pain Score (LSMean from ANCOVA) [3, 7]: −1.194
- Mean Change from Baseline in Mean Daily Nausea Score (LSMean from ANCOVA) [3, 8]: −1.404
- Mean Change from Baseline in Mean Daily Upper Abdominal Pain Score (LSMean from ANCOVA) [3, 8]: −1.218
- Estimated Mean Change from Baseline in Mean Daily GSA Total Scores (LSMean from ANCOVA) ([3]; ITT, Week 1, 10 mg intranasal four times daily, N = 52): −0.588
- Estimated Mean Change from Baseline in Mean Daily GSA Total Scores (LSMean from ANCOVA) ([3]; ITT, Week 2, 10 mg intranasal four times daily, N = 52): −0.950
- Estimated Mean Change from Baseline in Mean Daily GSA Total Scores (LSMean from ANCOVA) ([3]; ITT, Week 3, 10 mg intranasal four times daily, N = 52): −1.096
- Estimated Mean Change from Baseline in Mean Daily GSA Total Scores (LSMean from ANCOVA) ([3]; ITT, Week 4, 10 mg intranasal four times daily, N = 52): −1.220
- Estimated Mean Change from Baseline in Mean Daily GSA Total Scores (LSMean from ANCOVA) ([3]; Per Protocol, Week 1, 10 mg intranasal four times daily, N = 38): −0.623
- Estimated Mean Change from Baseline in Mean Daily GSA Total Scores (LSMean from ANCOVA) ([3]; Per Protocol, Week 2, 10 mg intranasal four times daily, N = 38): −1.040
- Estimated Mean Change from Baseline in Mean Daily GSA Total Scores (LSMean from ANCOVA) ([3]; Per Protocol, Week 3, 10 mg intranasal four times daily, N = 38): −1.286
- Estimated Mean Change from Baseline in Mean Daily GSA Total Scores (LSMean from ANCOVA) ([3]; Per Protocol, Week 4, 10 mg intranasal four times daily, N = 38): −1.373
- Efficacy versus placebo, change from baseline ([3]; all enrolled patients across all severities of disease (205 female patients), 10 mg intranasal q.i.d.): no statistically significant change from baseline in efficacy versus placebo
- Efficacy compared to placebo ([3]; mild gastroparesis, intranasal, same treatment regimen): did not demonstrate statistically significant efficacy
- Improvements in nausea and abdominal pain ([3]; patient segment with moderate to severe symptoms of gastroparesis, versus placebo): clinically and statistically significant improvements
- Efficacy versus placebo (post-hoc analysis) ([3]; patients who entered the study with moderate to severe gastroparesis, 10 mg intranasal q.i.d.): statistically significant efficacy
